Measured values taken from US12559784B2 (priority 2023, dated 2026).
“And” between values parts separate entries of the source, which are not always exact repeats. Equal values may be shown once. Read-outs that look alike come from different tables or passages of the source.

Key:
alkaline phosphatase [1] = test: Alkaline phosphatase experiment, seventh week: 1:100 vs 1:1000 dilution, room temperature vs 37° C.; details: for OD405 reading, 1:1000 ethanol solvent condition (FIG. 9B): 4-hour exposure, 1-hour PNPP
Experimental: Preparation • 1. Alkaline phosphatase reaction reagent • a. 1:100 • i. PBS: Take 400 μL of AP (1:10) stock solution, add to 3.6 mL PBS. Vortex mix and then invert to mix 10 times • ii. […] Vortex mix and then invert to mix 10 times • b. 1:1000 • i. PBS: Take 400 μL of AP (1:100) stock solution, add to 3.6 mL PBS. Vortex mix and then invert to mix 10 times • ii. […] Vortex mix and then invert to mix 10 times • 2. Prepare 0.5 mL microcentrifuge tubes for dosing • a. One set for room temperature, one set for 37° C. • 3. Prepare 96-well plates for PNPP reading (3 wells for each test chemical) • a. Aliquot with 200 μL PNPP Conditions • 1. 1:100 in PBS at RT • 2. […] 1:100 in PBS at 37° C. • 4. […] 1:1000 in PBS at RT • 6. […] 1:1000 in PBS at 37° C. • 8. […] Procedure • 1. In each microcentrifuge tube for each condition, add 180 μL of the corresponding AP reaction reagent • 2. Add 20 μL of the test chemical to each microcentrifuge tube • 3. Incubate for 4 hours (one set at room temperature; one set at 37° C.) • 4. To prepared 96-well plates with 200 μL PNPP aliquoted, add 20 μL of each microcentrifuge tube to the corresponding well • 5.

alkaline phosphatase [2] = assay type: biochemical
Experimental: New stocks were made the of the 1:100 alkaline phosphatase reaction reagents.
The conditions included: 1:100 dilution of alkaline phosphatase reaction reagent with two solvents (buffered saline and ethanol), dosing in 0.5 mL microcentrifuge tubes with 20 μL of chemical added to 180 μL of reaction reagent, and incubating with p-Nitrophenyl phosphate disodium salt (PNPP) substrate for 1-hour.

alkaline phosphatase [3] = assay type: biochemical; details: 3-hour exposure
alkaline phosphatase [4] = test: Alkaline phosphatase experiment, third week: with and without discs; assay type: biochemical; details: 405 nm, 100 μL chemical, 18 hours 37° C., PNPP 1 hour
Source text: Our next study focused on an in vitro method of detecting the potential of dermal corrosives to inhibit nonspecific phosphatases that may be released from the skin. We decided to test pure […] instead of relying on endogenous skin phosphatase. Alkaline phosphatase (Sigma Aldrich, St. Louis, MO) was purchased and suspended to make the reaction reagent (10,000 units). […] We note that the ratio used was 0.1 g/ml or 10% chemical—which is far in excess of any pharmaceutical applications. We further note that pharmaceutical enzyme inhibition tests, studies an use involve highly specific active site binding and these assays are conducted at ratios of micrograms-femtograms per ml. These studies are done at these ranges because these are the realistic concentrations for drug applications and therapeutics. […] So when a 50 Kg human consumes the tables, the tissues will be exposed at a 5 mg/50 kg=0.1 mg/kg=0.0000001 g/ml.
Next two quantitative methods were evaluated: 1) using the discs parts from our OptiSafe™ test method and 2) directly into the 24-well plate.
Preparation • 1. Alkaline phosphatase reaction reagent • a. Take 1 vial of AP, add 1 mL of PBS, mix by pipette/re-pipette 10 times • b. To a 50 mL conical tube, add 1 mL of the AP solution prepared above and 40 mL of PBS • 2. Prepare two 24-well plates (1 with discs, 1 without discs) • 3. […] Aliquot 200 μL PNPP and PBS Procedure • 1. Plate 1 (No Discs) • a. Add 1.25 mL from the prepared PBS-AP conical tube to each well (11 wells) • b. Add 100 μL of the test material to the well, mix with the same pipette tip, dispose and repeat for the rest of the test materials • c. Wrap the plate in saran wrap and place into the container • 2. Plate 2 (Discs) • a. Configure the 11 discs in the plate so the plate cover is stable • b. Add 1.25 mL from the prepared PBS-AP conical tube to each well (11 wells) • c. Add 100 μL of the test material to the center of the disc and repeat for the rest of the test materials • d. Put the plate cover on and place into the container • 3. […] Incubate for 1 hour Reading Results • 1. Measure at OD405

alkaline phosphatase [5] = assay type: biochemical; remark: listed apart in the source
Experimental: For the new study, the alkaline phosphatase was suspended in phosphate buffered saline (PBS) to make the reaction reagent. Then, 100 μL of the test chemical is added directly into the corresponding wells on a 24-well plate with 1.25 mL of alkaline phosphatase reaction reagent already aliquoted.
Preparation • 1. Alkaline phosphatase reaction reagent • a. Take 1 vial of AP, add 1 mL of PBS, mix by pipette/re-pipette 10 times • b. To a 50 mL conical tube, add 1 mL of the AP solution prepared above and 40 mL of PBS • 2. Prepare two 24-well plates • 3. […] Aliquot with 200 μL PNPP and PBS • 4. Prepare glass vials Repeat Procedure from 1-3-23 • 1. 24-well plate • a. Add 1.25 mL from the prepared PBS-AP conical tube to each well (11 wells) • b. Add 100 μL of the test material to the well, mix with the same pipette tip, dispose and repeat for the rest of the test materials • c. Wrap the plate in saran wrap and place into the container • 2. […] To the prepared 96-well plate with 200 μL PNPP or PBS, add 20 μL from the 24-well plate • 4. Incubate for 1 hour • 5. […] 24-well plate • a. Add 1.25 mL from the prepared PBS-AP conical tube to each well (11 wells) • b. Add 100 μL of the test material to the well, mix with the same pipette tip, dispose and repeat for the rest of the test materials • c. After 10 minutes, mix each well • 2. To the prepared 96-well plate with 200 μL PNPP or PBS, add 20 μL from the 24-well plate • 3. […] Aliquot 200 μL from the 24-well plate to glass vials filled with 2 mL of PNPP

porcine skin = details: fresh porcine skin; 140 μL test chemical; R 1 and 2; >3A = outside readable range
Experimental: Our initial studies involved using fresh and frozen porcine skin “buttons”. These buttons were punched out of porcine skin (Spear Products, Cooopersburg, PA) using a […] biopsy punch tool. Three different kinds of skin buttons were prepared from fresh porcine skin, frozen porcine skin, and frozen porcine skin with the fatty layer removed. […] The next day, the tubes were taken out and vortexed and 500 μL of the solution was aliquoted into cuvettes to read at three different optical density wavelengths (OD190, OD290, OD300) to evaluate the best response.
Skin Preparation • 1. Thaw 2 pieces of frozen porcine skin • 2. Punch out buttons: 24 buttons in each tube filled with 40 mL PB S-Azide 96-well plate Preparation • 1. Plate layout for dosing:
Procedure • 1. Dose each tissue with 140 μL of test chemical • 2. […] Take out of incubator and vortex pulse 3× • 2. Aliquot 500 μL to cuvette and read results at OD190, OD290, and OD300
There were three readings done at an optical density of 190, 290, and 300 nm to evaluate the best response. […] To address the variable exposure conditions, our next studies involved placing a larger porcine skin section into a holder that exposes only the epidermis side with no potential for test chemical exposure from the backside or through the sides.

skin = details: cited from earlier work
phosphatase = assay type: biochemical, porcine
Experimental: Our next studies involved applying the test substance (500 μL) directly to the epidermis side of previously frozen porcine skin (Spear Products, Coopersburg, PA) that is placed in a holder that only exposes the epidermis side for 30 minutes, adding phosphate buffered saline (PBS) with added sodium azide (metabolic inhibitor that ensure no viable tissue), then aliquoting into cuvettes to read at an optical density of 300 nm. […] So, at the end of the initial studies described above, almost out of frustration, we tried to probe for released phosphatase activity using p-Nitrophenyl phosphate disodium salt (PNPP; Sigma Aldrich, St. Louis, MO) substrate solution to detect any presence of phosphatase.
Preparation • 1. Thaw 2 pieces of frozen porcine skin • a. Punch out as many skin discs and mount in holders • 2. Label cuvettes (3 for each chemical) Procedure • 1. Add 500 μL of test chemical to holder; incubate at room temperate for 30 minutes • 2. After 30 minutes, add 2 mL of PBS-Azide to both the holder containing the test chemical; forcefully pipette and re-pipette 10 times • 3. From the holder, aliquot 400 μL into 3 cuvettes; forcefully pipette and re-pipette 3 times before dispensing into cuvettes Reading Results • 1. Measure at OD300 for all cuvettes
Skin corrosion by GHS Category 1 dermal corrosive chemicals results in the disintegration of the epidermis into the dermis.

alkaline phosphatase [6] = details: 30 μL chemical in 300 μL reagent 1:100, 4 hours room temperature, 3 mL PNPP 1 hour
Experimental: We changed the test chemical dosage to 30 μL and the alkaline phosphatase reaction reagent to 300 μL, but kept the incubation to 4 hours at room temperature.
PBS: Take 4 mL of AP (1:10) stock solution, add to 36 mL PBS. Vortex mix and then invert to mix 10 times • ii. […] Vortex mix and then invert to mix 10 times • b. PBS (lx) • c. […] Prepare 4 mL glass vials for dosing • a. Four sets • i. R1+ (PBS-AP) • ii. R1− (PBS) • iii. […] Prepare 96-well plates for PNPP reading (3 wells for each test chemical) Procedure • 1. Aliquot 300 μL of each reaction reagent to 4 mL glass vials. • 2. Add 30 μL of the test sample to each 4 mL glass vial. • 3. Incubate at room temperature for 4 hours. • 4. Aliquot 3 mL of PNPP to each 4 mL glass vial, let sit for 1 hr. • a. Aliquot 750 μL into the 4 mL glass vial to stop the reaction. • 5.

alkaline phosphatase [7] = assay type: biochemical; details: PBS; 18 hours room temperature, PNPP 1 hour
Source text: Our next study compared different dilutions of the original alkaline phosphatase source (1:10 [Activity: 1,000 units] and 1:100 [100 units]) and two sources of alkaline phosphatase, both purchased from Sigma Aldrich (St. Louis, MO). […] The five conditions for this study included original alkaline phosphatase (1:1), original alkaline phosphatase (1:10), original alkaline phosphatase (1:100), new alkaline phosphatase (1:1), and the blanks (phosphate buffered saline (PBS)). […] The two controls contained ink to determine if there would be any background effect.
Preparation • 1. Alkaline phosphatase reaction reagent • a. Original AP • i. Add 1 mL PBS into AP vial, pipette re-pipette 10 times, then invert with cap on, to mix well. Take this 1 mL and add to 50 mL conical tube filled with 40 mL PBS. Invert to mix 10 times, vortex mix, let sit 2 minutes, invert to mix again 10 times • ii. Prepare 2 more 50 mL conical tubes • 1. 1:10 • a. […] 1:100 • a. Take 4 mL of solution made above, add to 36 mL PBS. […] New AP • i. Add 400 mg into a 50 mL conical tube filled with 40 mL PBS. Invert to mix 10 times, vortex mix, let sit 2 minutes, invert to mix 10 more times. Check to make sure all suspended. If not, vortex mix and invert until fully suspended. • 2. Prepare 24-well plates • 3. […] Aliquot with 200 μL PNPP Conditions • 1. Old AP • 2. Old AP (1:10) • 3. Old AP (1:100) • 4. New AP • 5. Blank (PBS only) Procedure • 1. 24-well plates • a. Add 1 mL (using P1000, blue tips) of the prepared PBS-AP to the plate (for each condition) • b. Add 100 μL of the test material to the well, mix with the same pipette tip, dispose and repeat for the rest of the test materials • c. Wrap the plate in saran wrap and place into the container • d. […] To the prepared 96-well plate with 200 μL PNPP or PBS, add 20 μL from the 24-well plate • 3. Incubate for 1 hour • 4.

[8] = cited from earlier work
[9] = 10 minutes test chemical exposure
[10] = skin, chemical lists of the experiments

| Structure (SMILES) | A2 - Results AVG (alkaline phosphatase [2]) | A2 - Results R1 (alkaline phosphatase [2]) | A2 - Results R3 (alkaline phosphatase [2]) | in vivo GHS (skin; [10]) | OD405 readings, original alkaline phosphatase 1:100 (FIG. 6D) (alkaline phosphatase [7]) | solubility with water [8] | also measured |
| --- | --- | --- | --- | --- | --- | --- | --- |
| CSc1ccc(C=O)cc1 | 3.333 | 3.379 | 3.266 | – | – | – | OD405 reading, 1:100 ethanol solvent condition, 37° C. (alkaline phosphatase [1]; 37° C.): 0.857; OD405 reading, 1:100 ethanol solvent condition, room temperature (alkaline phosphatase [1]; room temperature): 2.243 |
| ClCCCCBr [1-Bromo-4-chlorobutane] | 2.849 | 2.948 | 2.869 | – | – | – | OD405 reading, 1:1000 ethanol solvent condition (FIG. 9B) (alkaline phosphatase [1]): 0.799; OD405 reading, ethanol solvent, 10 μL dose, 30-minute PNPP (FIG. 7A) (alkaline phosphatase [3]; 10 μL into 90 μL): 3.349; OD405 reading, ethanol solvent, 50 μL dose, 30-minute PNPP (FIG. 7A) (alkaline phosphatase [3]; 50 μL into 50 μL): 0.700 |
| CN(C)CCCNCCCN [Dimethyldipropylenetriamine] | 0.117 | 0.119 | 0.114 | Cat. 1A | – | – | raw optical density reading (PNPP), with discs (FIG. 3A) (alkaline phosphatase [4]; 1.25 mL reaction reagent (10,000 units)): 0.152 and 0.159 and 0.140; raw optical density reading (PNPP), without discs (FIG. 3B) (alkaline phosphatase [4]; 1.25 mL reaction reagent): 0.138 and 0.176 and 0.133; raw optical density reading (PNPP), repeat without discs (FIG. 4) (alkaline phosphatase [5]; 405 nm, 18 hours 37° C. exposure, PNPP 1 hour): 0.132 and 0.128 and 0.127; 10-minute PNPP incubation readings (FIG. 5A) (alkaline phosphatase [5]; [9]): 3.500; 18-hour PNPP incubation readings (FIG. 5D) (alkaline phosphatase [5]; [9]): 0.110; OD190 (porcine skin): >3A; Corrosive (skin; Yes/No): Yes; in vivo GHS (skin; skin, Tables 1A-1C and 2): Cat. 1A; percent of phosphatase measured (optical density compared to the naïve condition), average (phosphatase; average of two readings): 20.6%; percent of phosphatase measured (optical density compared to the naïve condition) (phosphatase; single readings): 23.5% and 17.7% |
| CC(C)N(C)C [Dimethylisopropylamine] | 0.244 | 0.226 | 0.295 | Cat. 1B/1C | 3.466 and 3.502 | mostly insoluble with water | OD405 readings, buffered saline alkaline phosphatase reaction reagent, glass vials (FIG. 11B) (alkaline phosphatase [6]): 3.354 and 3.466 and 3.502; OD405 readings, ethanol alkaline phosphatase reaction reagent, glass vials (FIG. 11D) (alkaline phosphatase [6]): 2.926 and 2.922 and 2.852 |
| CN(C)Cc1ccccc1 [N,N-Dimethylbenzylamine] | 0.570 | 0.588 | 0.539 | – | 3.431 and 3.502 and 3.61 | mostly insoluble with water | OD405 reading, 1:1000 ethanol solvent condition (FIG. 9B) (alkaline phosphatase [1]): 0.587; OD405 readings, buffered saline alkaline phosphatase reaction reagent, glass vials (FIG. 11B) (alkaline phosphatase [6]): 3.360 and 3.238 and 3.273; OD405 readings, ethanol alkaline phosphatase reaction reagent, glass vials (FIG. 11D) (alkaline phosphatase [6]): 3.429 and 3.249 and 3.164; in vivo GHS (skin; rabbit, in vivo): Cat. 1C |
| [K+].[OH-] [Potassium hydroxide (10%), Potassium hydroxide] | 0.108 | 0.107 | 0.108 | – | – | – | raw optical density reading (PNPP), repeat without discs (FIG. 4) (alkaline phosphatase [5]): 0.123 and 0.124 |
| CCCCCCCN [n-Heptylamine] | 0.175 | 0.170 | 0.193 | Cat. 1B/1C | 3.244 and 3.057 and 3.152 | mostly insoluble with water | – |
